What was measured:
[1] = system: conjunctiva; assay: Posterior lip sclerectomy (filtration surgery) with preoperative SnET2 injection and postoperative laser irradiation; type: in vivo, rabbit; settings: 665 nm, 100 mW/cm^2
Protocol: (§1) Pharmacokinetics of the photosensitive agent or tin ethyl-etiopurpurin (SnET2) were studied after subconjunctival injections (0,25,50,75 ug; 11 rabbits). Noninvasive measurements were made at 0, 0.5, 1, 2, 3 and 4 hr postinjection using a HeCd based laser fluorescence diagnostic system (excitation-442 nm; detection-670 nm SnET2 fluorescence; tissue autofluorescense-570 nm). SnET2 uptake was determined by an elevated 670/570 nm ratio. Preoperative injections (0, 25, 50 and 75 ug; 8 rabbits) of SnET2 were given and posterior lip sclerectomies were performed after 3-4 hrs followed by post operative laser irradiation (665 nm; 100 mW/cm^2; 30 J/cm^2). […] Self absorption of the fluorescence was present in the higher doses for the conjunctiva. Fluorescence ratios (T=3 hr) were as follows. The fluorescence ratios are shown below in Table 2. The tissue ratios were: conjunctiva/iris: 0 (control)=1.2; 25 ug=63+/-17; 50 ug=54+/-31; 75 ug=4+/-1.2. Conjunctiva/optical axis: 0 (control)=1.4; 25 ug=109+/-37; 50 ug=78+/-10; 75 ug=11+/-2.5.
Some of the animals of the group shown in Table 2 and 3 were treated with 665 nanometers laser light at 100 milliwatt per square centimeter (30 Joules per square centimeter) exposure with 8 millimeter diameter spot three to four hours after the injection of the SnET2 following filtering surgery in the eye.

[2] = Noninvasive laser fluorescence (HeCd) measurement of SnET2 uptake and distribution in ocular tissues after subconjunctival injection; type: in vivo, rabbit; settings: for Axis Fluorescence Ratio (670 nm/570 nm) / Conjunctiva Fluorescence Ratio (670 nm/570 nm) / Iris Fluorescence Ratio (670 nm/570 nm) / Ratio of Fluorescence (Conjuctiva/Axis) / Ratio of Fluorescence (Conjuctiva/Iris): 3 hr
Protocol: as §1
Noninvasive fluorescent measurements, using a HeCd laser, was made of the SnET2 to determine its uptake and distribution. Exposure of SnET2 with a HeCd laser, excites the tissue at 442 nanometers and detects 670 nanometer florescence for SnET2 and 570 nanometer for tissue autofluorescence. The higher the ratio (670 nm/570 nm), the higher the uptake. Measurements in the conjunctiva compared to the iris and of the conjunctiva as compared to the axis of the eye, namely the pupil, were compared three hours after injection. […] In this case the self-absorption of the 670 nm fluorescence by the SnET2 at such a high local concentration causes the intensity to actually decrease. […] This is also due to self-absorption. Note that for the iris and axis readings the signal does continue to increase with increasing injected dose due to the greater leakage into these areas of the eye with the higher injected doses. This is a negative, unwanted effect and is why the ratios of the conjuntiva/iris and conjuntiva/axis ratios decrease in Table 3. […] The decreased tissue ratios at the higher photosensitizer injection doses indicate lower specificity due to greater leakage from the injection site.

[3] = 25 μg subconjunctival, 3 animals
[4] = 50 μg subconjunctival, 3 animals
[5] = 75 μg subconjunctival, 5 animals

Axis Fluorescence Ratio (670 nm/570 nm) [2, 3]: 0.26 +/- 0.03
Conjunctiva Fluorescence Ratio (670 nm/570 nm) [2, 3]: 28.27 +/- 10.90
Iris Fluorescence Ratio (670 nm/570 nm) [2, 3]: 0.44 +/- 0.08
Ratio of Fluorescence (Conjuctiva/Axis) [2, 3]: 109+/-37
Ratio of Fluorescence (Conjuctiva/Iris) [2, 3]: 63+/-17
Axis Fluorescence Ratio (670 nm/570 nm) [2, 4]: 0.37 +/- 0.05
Conjunctiva Fluorescence Ratio (670 nm/570 nm) [2, 4]: 31.70 +/- 8.60
Iris Fluorescence Ratio (670 nm/570 nm) [2, 4]: 0.65 +/- 0.21
Ratio of Fluorescence (Conjuctiva/Axis) [2, 4]: 78+/-10
Ratio of Fluorescence (Conjuctiva/Iris) [2, 4]: 54+/-31
Axis Fluorescence Ratio (670 nm/570 nm) [2, 5]: 1.30 +/- 0.90
Iris Fluorescence Ratio (670 nm/570 nm) [2, 5]: 4.72 +/- 4.94
Ratio of Fluorescence (Conjuctiva/Axis) [2, 5]: 11 +/- 2.5
Ratio of Fluorescence (Conjuctiva/Iris) [2, 5]: 4 +/- 1.2
Conjunctiva Fluorescence Ratio (670 nm/570 nm) ([2]; 75 μg subconjunctival, 5 animals, self-absorption of fluorescence): 15.14 +/- 13.60
levels in the iris and optical axis ([2]; subconjunctival injection): small, but detectable levels
time of peak conjunctival fluorescence post injection ([2]; subconjunctival injection): 3 h
Compound: CCOC(=O)C1=Cc2c3nc(cc4nc(cc5[n-]c(cc6[n-]c2c(C)c6CC)c(C)c5CC)C(C)=C4CC)[C@@H](C)[C@]13CC.[Cl-].[Cl-].[Sn] (racemic) [SnET2, tin ethyl-etiopurpurin]
overall effect of photodynamic therapy on conjunctiva ([1]; 30 J/cm^2): titratable, localized, transient, post operative avascular conjunctiva
avascular conjunctiva, post operative ([1]; SnET2 25, 50, 75 ug, 30 J/cm^2, 3-4 hrs after injection): large transient areas of avascular conjunctiva were produced
limitation of avascular areas to filtering blebs ([1]; at 4 weeks, 30 J/cm^2): limitation of avascular areas to filtering blebs at 4 weeks
uptake and retention at the injection site (conjunctiva) ([2]; subconjunctival injection): preferentially taken up and preferentially remains in the area of the injection, namely the conjunctiva

From patent publication US6095147A, “Method for photo-altering a biological system to improve biological effect” (The Regents of the University of California, priority 1994, dated 2000)
